Assay results from US10588280B2, “Aided delivery of plant treatment agents” (Monsanto Technology LLC, priority 2014, dated 2020).

Tested on: haploid corn seedlings (SAM)
Assay: Example 3: serial (submerged then unsubmerged) centrifugation with colchicine, survival and doubling success
Format: in vivo
Details: for DE / Fert. Success / Initial Survival / Poll. Success: 1000 ppm colchicine, submerged 50 g 3 min then unsubmerged 335 g 3 min
Description: Seeds of 5 different F1 hybrid-derived haploid corn lines were randomly-selected and germinated in a greenhouse. The resulting seedlings were removed from soil or growth media at the V1-V3 growth stage and the soil or growth media rinsed from the plants with water. Seedlings were then aligned and assembled along with several rods in a bundled PCS similar to what is shown in FIG. 9 and a plant treatment solution comprising 1000 ppm colchicine was poured into the container such that the solution submerged the SAM of each plant and then the entire sample was centrifuged at 50 g for 3 min while the SAMs remained submerged in the plant treatment agent.
Following the first centrifugation, the plant treatment solution was decanted and the seedlings subjected to an unsubmerged centrifugation at 335 g for 3 min.
Following the second centrifugation, the plants were removed from the centrifugation container and rinsed with water to remove any remaining colchicine solution, and then recovered and tended in a light, humidity, and temperature-controlled greenhouse for several days before being transplanted to a nursery greenhouse.
The control sample received no colchicine exposure, but was otherwise handled identically as the experimental samples. During the subsequent growth of the plants, the initial survival, pollination success, fertilization success, final survival, and doubling efficiency was determined within each sample as described in Example 2.

## COc1cc2c(c(OC)c1OC)-c1ccc(OC)c(=O)cc1[C@@H](NC(C)=O)CC2 [colchicine]
Ave: of five lines
  DE: 72%
  Fert. Success: 94%
  Initial Survival: 93%
  Poll. Success: 85%
Line F1004
  DE: 57%
  Fert. Success: 100%
  Initial Survival: 93%
  Poll. Success: 62%
Line F1045
  DE: 75%
  Fert. Success: 100%
  Initial Survival: 100%
  Poll. Success: 75%
Line F1095
  DE: 80%
  Fert. Success: 92%
  Initial Survival: 100%
  Poll. Success: 87%
Line F1118
  DE: 60%
  Fert. Success: 86%
  Initial Survival: 70%
  Poll. Success: 100%
Line F1900
  DE: 90%
  Fert. Success: 90%
  Initial Survival: 100%
  Poll. Success: 100%
Minimum over all five inbred samples receiving the experimental treatment
  individuals that produced pollen and silks: at least 62%
Samples receiving serial centrifugation with 1000 ppm colchicine vs controls
  increase in overall DE as compared to controls: 67%
